Assay results: patent US20110040088A1, “FUSED HETEROCYCLIC COMPOUNDS” (priority 2003, published 2011)
Like-named read-outs stand apart in the source and are kept apart here.

Columns and labels:
rat 5-HT7a receptor [1] = biological target: T1, rat 5-HT7a receptor (Rattus norvegicus, UniProt P32305); assay: Adenylyl cyclase assay (5-CT-stimulated cAMP) in r5-HT7a/HEK-293 cells; type: cell-based
T1 construct: expressed in transfected cells
Method: 2. Effect on Adenylyl Cyclase Activity
In vitro functional properties of the compounds described in this invention were evaluated in an adenylyl cyclase assay. HEK-293 cells stably tranfected with the rat 5-HT7a receptor were plated into 96-well plates. Cells were washed with 200 μL DNEM/F12 and incubated for 10 min with 80 μL of 2 mM 3-isobutyl-1-methylxanthine. Compounds (10 μL) were added for another 10 min. Subsequently, 5-CT (10 μL) was added. After 20 min the incubation was stopped by the addition of 20 μL of 0.5 N HCl. Plates were incubated at 4° C. for 30 min. Twenty μL of the supernatant were assayed for cAMP content with a commercially available kit (Perkin Elmer) using ^125I-cAMP. Sigmoidal curves of best fit were calculated by nonlinear regression analysis using GrapPad Prism.
5-CT-stimulated adenylyl cyclase activity in r5-HT7a/HEK-293 cells was inhibited by Example 59 with an estimated pKB˜8 in good agreement with the Ki value determined from [^3H]5-CT binding studies.

5-HT2A receptor = 5-HT2A receptor (UniProt P28223); assay: 5-HT2A receptor radioligand binding ([3H]ketanserin); details: read-out: Ki 5-HT2A, table does not say whether rat cortex or human recombinant (NIH3T3) receptor;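 note: competitive displacement binding on membranes, either from rat cerebral cortex or from NIH3T3 cells stably expressing human 5-HT2A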
Method: The affinity of the compounds for the rat 5-HT2A receptor was evaluated by competitive radioligand binding assay using [^3H]ketanserine as the radioligand. The assay was performed on membranes from rat cortex as previously described (Schotte, A. et al., Psychopharmacology (1996) 124: 57-73). Briefly, brain tissue (rat cortex) was homogenized in 20 volumes per wet weight tissue of Tris-HCl buffer (50 mM, pH 7.4). The total membrane fraction was collected by centrifugation and washed by subsequent centrifugation runs (25 min at 25,000 g at 4° C.). Membranes were re-suspended in Tris-HCl buffer (50 mM, pH 7.4) containing 1 nM [^3H]ketanserin. Non-specific binding was estimated in the presence of 10 μM risperidone.

[2] = biological target: human recombinant 5-HT2B receptor (Homo sapiens, UniProt P41595); assay: 5-HT2B receptor radioligand binding ([3H]mesulergine, CHO membranes);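 note: competitive displacement binding on membranes of CHO cells stably expressing the receptor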
Sequence of human recombinant 5-HT2B receptor (P41595 whole entry): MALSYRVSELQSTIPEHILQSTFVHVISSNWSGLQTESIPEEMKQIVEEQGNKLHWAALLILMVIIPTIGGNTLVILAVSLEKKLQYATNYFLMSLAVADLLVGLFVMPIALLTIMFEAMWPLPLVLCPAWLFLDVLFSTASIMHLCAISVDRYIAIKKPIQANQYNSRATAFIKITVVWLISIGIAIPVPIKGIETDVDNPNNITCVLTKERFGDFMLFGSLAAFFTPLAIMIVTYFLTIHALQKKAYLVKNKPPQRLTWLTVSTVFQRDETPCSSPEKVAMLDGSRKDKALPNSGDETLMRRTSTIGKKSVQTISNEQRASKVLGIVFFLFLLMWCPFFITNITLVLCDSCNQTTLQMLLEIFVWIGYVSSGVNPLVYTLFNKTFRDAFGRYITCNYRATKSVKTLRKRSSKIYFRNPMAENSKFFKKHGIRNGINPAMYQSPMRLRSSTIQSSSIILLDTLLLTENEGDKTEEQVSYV
Method: (§1) Affinity for 5HT2 Receptor Binding Sites
(§2) Receptor binding was performed using the human recombinant 5-HT2A (GB: X57830), 5-HT2B (GB: Z36748) and 5-HT2c (GB: M81778) receptors. The affinity of the compounds for the 3 different human 5-HT2 receptor subtypes was evaluated by competitive radioligand binding assays using [^3H]ketanserin (h5-HT2A) or [^3H]mesulergine (h5-HT2B and h5-HT2c). The assays were performed on membranes prepared from NIH3T3 stably transfected with h5-HT2A or CHO stably transfected with h5-HT2B and h5-HT2C.

rat 5-HT7a receptor [3] = biological target: T1, rat 5-HT7a receptor; assay: 5-HT7 receptor radioligand binding ([3H]5-CT, membranes of transfected HEK-293 cells); details: rat 5-HT7a in HEK-293 membranes, 1 nM [3H]5-CT
[4] = biological target: T2, human recombinant 5-HT2C receptor (Homo sapiens, UniProt P28335); assay: 5-HT2C receptor radioligand binding ([3H]mesulergine, CHO membranes);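 note: competitive displacement of the tritiated ligand, using membranes from CHO cells stably transfected with the human receptor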
T2 sequence (P28335 33-458): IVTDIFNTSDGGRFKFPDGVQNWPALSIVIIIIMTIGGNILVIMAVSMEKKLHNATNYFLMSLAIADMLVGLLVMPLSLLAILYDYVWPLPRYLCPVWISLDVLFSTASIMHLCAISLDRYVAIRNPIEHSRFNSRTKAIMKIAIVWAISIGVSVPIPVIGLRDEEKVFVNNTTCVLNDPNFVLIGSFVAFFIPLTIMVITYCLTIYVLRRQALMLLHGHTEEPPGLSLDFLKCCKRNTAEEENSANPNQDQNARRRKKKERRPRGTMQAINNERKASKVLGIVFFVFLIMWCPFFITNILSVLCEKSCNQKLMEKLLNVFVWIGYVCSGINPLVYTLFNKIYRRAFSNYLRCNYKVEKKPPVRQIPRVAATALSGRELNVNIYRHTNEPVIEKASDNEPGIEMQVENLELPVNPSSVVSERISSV
Method: as §1, §2

T1 sequence (P32305 whole entry): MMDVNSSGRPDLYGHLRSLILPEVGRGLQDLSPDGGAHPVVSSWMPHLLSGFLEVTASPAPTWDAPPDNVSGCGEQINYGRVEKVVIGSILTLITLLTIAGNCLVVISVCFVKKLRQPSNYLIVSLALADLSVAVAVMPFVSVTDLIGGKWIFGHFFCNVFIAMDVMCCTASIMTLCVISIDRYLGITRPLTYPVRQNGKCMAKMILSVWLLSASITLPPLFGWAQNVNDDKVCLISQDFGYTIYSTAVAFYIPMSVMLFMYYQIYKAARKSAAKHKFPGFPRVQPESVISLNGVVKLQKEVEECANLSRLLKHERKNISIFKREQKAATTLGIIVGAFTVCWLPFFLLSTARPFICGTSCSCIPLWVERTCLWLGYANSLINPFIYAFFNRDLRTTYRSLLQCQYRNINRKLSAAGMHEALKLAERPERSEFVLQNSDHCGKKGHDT

| Kb (rat 5-HT7a receptor [1]; printed in the Ki 5-HT7 column of Table 1, read-out: pKb 5-HT7 (converted)) [nM] | Kb (rat 5-HT7a receptor [1]; r5-HT7a/HEK-293 cells, estimated) [nM] | SMILES | Ki (5-HT2A receptor) [nM] | Ki [2] [nM] | Ki (rat 5-HT7a receptor [3]) [nM] | Ki [4] [nM] |
| --- | --- | --- | --- | --- | --- | --- |
| 15.8 | – | CN1CCc2c(c(-c3ccc(Cl)cc3)cn2Cc2ccccc2)C1 [Example 38, 1-Benzyl-3-(4-chloro-phenyl)-5-methyl-4,5,6,7-tetrahydro-1H-pyrrolo[3,2-c]pyridine] | – | – | – | – |
| – | ~10 | Clc1ccc(-c2nn(Cc3ccccc3)c3c2CCNCC3)cc1 [Example 59, 1-Benzyl-3-(4-chloro-phenyl)-1,4,5,6,7,8-hexahydro-1,2,6-triaza-azulene] | 280 | 160 | 6 | 74 |
| – | – | CCC(C)n1nc2c(c1-c1ccc(C)cc1)CCNCC2 (stereo not drawn) [Example 300, 2-sec-Butyl-3-p-tolyl-2,4,5,6,7,8-hexahydro-1,2,6-triaza-azulene] | 0.3 | 0.8 | 10 | 12 |
| – | – | CCC(C)n1nc2c(c1-c1ccc(C(F)(F)F)cc1)CCNCC2 (stereo not drawn) [Example 301, 2-sec-Butyl-3-(4-trifluoromethyl-phenyl)-2,4,5,6,7,8-hexahydro-1,2,6-triaza-azulene] | 1.6 | 3 | 40 | 100 |
| – | – | CN1CCc2nn(C3CCCC3)c(-c3ccc(F)cc3)c2CC1 [Example 302, 2-Cyclopentyl-3-(4-fluoro-phenyl)-6-methyl-2,4,5,6,7,8-hexahydro-1,2,6-triaza-azulene] | 0.2 | 1.3 | 100 | 21.5 |
| – | – | CC1CN(Cc2ccccc2)CCc2c1nn(C(C)C)c2-c1ccc(F)cc1 (stereo not drawn) [Example 305, 6-Benzyl-3-(4-fluoro-phenyl)-2-isopropyl-8-methyl-2,4,5,6,7,8-hexahydro-1,2,6-triaza-azulene] | 20 | 60 | 600 | 2200 |
| – | – | CC1CNCCc2c1nn(C(C)C)c2-c1ccc(F)cc1 (stereo not drawn) [Example 306, 3-(4-Fluoro-phenyl)-2-isopropyl-8-methyl-2,4,5,6,7,8-hexahydro-1,2,6-triaza-azulene] | 1 | 22 | 120 | 39 |
| – | – | CC1Cc2nn(C3CCCC3)c(-c3ccc(F)cc3)c2CCN1 (stereo not drawn) [Example 308, 2-Cyclopentyl-3-(4-fluoro-phenyl)-7-methyl-2,4,5,6,7,8-hexahydro-1,2,6-triaza-azulene] | 2 | 3 | 5200 | 162 |
| – | – | CC1Cc2c(nn(C3CCCC3)c2-c2ccc(F)cc2)CCN1 (stereo not drawn) [Example 309, 2-Cyclopentyl-3-(4-fluoro-phenyl)-5-methyl-2,4,5,6,7,8-hexahydro-1,2,6-triaza-azulene] | 30 | 15 | 130 | 130 |
| – | – | Cc1ccc(-c2c3c(nn2C2CCCC2)CC(C)NCC3)cc1 (stereo not drawn) [Example 310, 2-Cyclopentyl-7-methyl-3-p-tolyl-2,4,5,6,7,8-hexahydro-1,2,6-triaza-azulene] | 0.2 | 0.4 | 475 | 30 |
| – | – | CC1Cc2nn(C(C)C)c(-c3ccccc3)c2CCN1 (stereo not drawn) [Example 311, 2-Isopropyl-7-methyl-3-phenyl-2,4,5,6,7,8-hexahydro-1,2,6-triaza-azulene] | 140 | 100 | 80 | 3000 |
| – | – | CC1Cc2nn(C(C)C)c(-c3ccc(F)cc3)c2CCN1 (stereo not drawn) [Example 313, 3-(4-Fluoro-phenyl)-2-isopropyl-7-methyl-2,4,5,6,7,8-hexahydro-1,2,6-triaza-azulene] | 100 | 40 | 30 | 1000 |
| – | – | Cc1ccc(-c2c3c(nn2C(C)C)CC(C)NCC3)cc1 (stereo not drawn) [Example 315, 2-Isopropyl-7-methyl-3-p-tolyl-2,4,5,6,7,8-hexahydro-1,2,6-triaza-azulene] | 9 | 3 | 12 | 300 |
| – | – | Clc1ccc(-c2nn(Cc3ccncc3)c3c2CCNCC3)cc1 [Example 316, 3-(4-Chloro-phenyl)-1-pyridin-4-ylmethyl-1,4,5,6,7,8-hexahydro-1,2,6-triaza-azulene] | 60 | 530 | 9.1 | 5000 |
